Series [1] concerns the target T1, ENL YEATS domain (association with H3K27cr) (Homo sapiens, UniProt Q03111).
T1 sequence (Q03111 1-148): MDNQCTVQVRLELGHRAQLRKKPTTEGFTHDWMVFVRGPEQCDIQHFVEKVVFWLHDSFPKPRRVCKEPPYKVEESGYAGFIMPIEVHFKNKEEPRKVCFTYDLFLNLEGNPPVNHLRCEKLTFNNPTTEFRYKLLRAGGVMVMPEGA
The series is described as follows: biochemical. Conditions: ENL (YEATS)-H3K27cr HTRF (IC50, μM). (In general: Time-resolved FRET reads energy transfer from a long-lived donor to a nearby acceptor.)

Series [2] in a line: Half-life in human liver microsomes. Format: in vitro ADME. On the technique in general: Liver microsomes are a subcellular fraction often used to study metabolism.
A short description of series [3]: Half-life in mouse liver microsomes. In kind it is in vitro ADME.
The target of the next series is T2, ENL(YEATS)-HiBiT (Homo sapiens, UniProt Q03111).
T2 sequence (Q03111 1-138 limits assumed): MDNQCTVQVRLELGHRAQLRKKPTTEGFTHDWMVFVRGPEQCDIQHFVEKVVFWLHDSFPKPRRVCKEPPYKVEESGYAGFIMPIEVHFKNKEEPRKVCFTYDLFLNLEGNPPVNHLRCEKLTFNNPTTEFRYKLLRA
The series can be described thus: cell-based.

A further series has as its target T3, ENL protein (Homo sapiens, UniProt Q03111).
T3 construct: performed on endogenous ENL protein by treating wild-type OCI-AML-2 cells with drug; endogenous in cells; host or cells: OCI/AML-2
T3 sequence (Q03111 1-559): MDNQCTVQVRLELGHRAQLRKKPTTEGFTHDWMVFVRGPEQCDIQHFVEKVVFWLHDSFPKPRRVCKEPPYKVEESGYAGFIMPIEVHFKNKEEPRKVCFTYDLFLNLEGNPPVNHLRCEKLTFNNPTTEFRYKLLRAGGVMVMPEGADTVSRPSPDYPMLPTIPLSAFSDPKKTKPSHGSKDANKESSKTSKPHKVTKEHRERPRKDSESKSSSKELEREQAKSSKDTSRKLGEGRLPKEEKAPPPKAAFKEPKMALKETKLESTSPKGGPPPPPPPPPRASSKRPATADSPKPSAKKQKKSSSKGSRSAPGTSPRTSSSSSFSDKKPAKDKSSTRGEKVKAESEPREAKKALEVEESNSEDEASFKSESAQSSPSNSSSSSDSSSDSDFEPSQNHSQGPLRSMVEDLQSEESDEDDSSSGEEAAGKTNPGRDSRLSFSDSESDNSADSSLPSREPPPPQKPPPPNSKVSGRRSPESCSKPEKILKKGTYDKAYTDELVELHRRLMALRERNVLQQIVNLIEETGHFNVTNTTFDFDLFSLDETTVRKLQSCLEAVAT
The series is described as follows: ENL immunoblot CETSA on endogenous ENL in OCI/AML-2 cells. Conditions: 10 μM. In kind it is cell-based. On the technique in general: In western blotting, separated proteins are transferred to a membrane and probed.

The test system of a further series is MV4; 11 cells. The series can be described thus: MV4;11 proliferation assay (total viable cell count). Conditions: listed as Compound of Formula 69. Format: cell-based. Here is the method: Proliferation assay. MV4; 11 cells were seeded at 20,000 cells/well in 96-well plates and treated with vehicle or drug, counted and reseeded at 20,000 cells/well every 3-4 days with freshly added vehicle or drug.

Where [4] appears, read: read-out: t1/2 (min) human liver microsomes.
Where [5] appears, read: read-out: t1/2 (min) mouse liver microsomes.
Setting [6] is: without NADPH, read-out: t1/2 mouse (min liver microsomes (without NADPH)).

Procedure for ENL protein: Cellular thermal shift assay (CETSA). […] Briefly, cells were treated with drug, washed with PBS, heated to various temperatures in a thermocycler, cooled to room temperature, lysed by three rounds of freeze-thaw, and then clarified lystaes were subjected to immunoblot analysis.
Procedure for ENL(YEATS)-HiBiT: Cellular thermal shift assay (CETSA). […] Cells were transferred to 384-well (20,000 cells per well in 20 μL) or 1,536-well (3,000 cells per well in 4 μL) plates and drug was transferred using a 100 nL pin tool for 384-well plates or acoustic transfer (Labcyte, Echo Liquid Handler) for 1,536-well plates. Luminescent detection of HiBiT was performed by combining an equal volume of Nano-Glo HiBiT Lytic Reagent (Promega, HiBiT Lytic Detection System, Cat. No. N3040) in each well. […] Briefly, cells were treated with drug, washed with PBS, heated to various temperatures in a thermocycler, cooled to room temperature, lysed by three rounds of freeze-thaw, and then clarified lystaes were subjected to immunoblot analysis.

As for `O=C(NCCN1CCCCC1)c1cccc(-c2cn3cc(C(=O)NC4CCC4)ccc3n2)c1` [Compound 108], the IC50 in series [1] (Table 1) stood at 0.124 µM; in series [1] (Table 2) it was 0.124 µM; at ENL(YEATS)-HiBiT it was 630 nM. In addition, the half-life in series [2] (setting [4]) amounted to 23.8 min; in series [2] (without NADPH, read-out: t1/2 (min) human liver microsomes (without NADPH)), 537 min; in series [3] (setting [5]), 28 min.

As for `O=C(NC1CCC1)c1ccc2nc(-c3cccc(NS(=O)(=O)NCCc4c[nH]cn4)c3)cn2c1` [Compound 69, 2-(3-((N-(2-(1H-imidazol-4-yl)ethyl)sulfamoyl)amino)phenyl)-N-cyclobutylimidazo[1,2-a]pyridine-6-carboxamide], the IC50 came to 0.1 µM in series [1] (Table 1), 0.1 µM in series [1] (Table 2) and 8400 nM on ENL(YEATS)-HiBiT. Moreover, the “stabilization of ENL protein, immunoblot analysis of CETSA” value at ENL protein is “stabilization of ENL protein”. Moreover, the “inhibition of MV4:11 proliferation, total viable cell count” value in the series on MV4; 11 cells is “Inhibition of MV4:11 proliferations”.

With `O=C(NC1CCC1)c1ccc2nc(-c3cccc(S(=O)(=O)NCCN4CCCCC4)c3)cn2c1` [Compound 107], the IC50 worked out at 0.635 µM in series [1] (Table 1), 0.635 µM in series [1] (Table 2) and 2020 nM at ENL(YEATS)-HiBiT. For the same compound, the half-life in series [3] (setting [5]) worked out at 6.15 min.

On to `O=C(CCN1CCNCC1)Nc1cccc(-c2cn3cc(C(=O)NC4CCC4)ccc3n2)c1` [Compound 114], for which the results for the IC50 (in series [1] (Table 1); in series [1] (Table 2); against ENL(YEATS)-HiBiT) were 0.261 µM, 0.261 µM and 4500 nM, respectively. Moreover, the results for the half-life in series [2] (setting [4]) and in series [3] (setting [5]) were 2960 min and 323 min, respectively.

`O=C(CCN1CCOCC1)Nc1cccc(-c2cn3cc(C(=O)NC4CCC4)ccc3n2)c1` [Compound 110]: the IC50 in series [1] (Table 1) was found to be 0.306 µM; in series [1] (Table 2) it was 0.306 µM; against ENL(YEATS)-HiBiT, 5010 nM. In addition, the half-life in series [3] (setting [5]) was determined as 19.9 min.

Take `O=C(CCN1CCCCC1)Nc1cccc(-c2cn3cc(C(=O)NC4CCC4)ccc3n2)c1` [Compound 102]: the IC50 in series [1] (Table 1) was 0.478 µM; in series [1] (Table 2) it was 0.478 µM; against ENL(YEATS)-HiBiT, 536 nM. Also, the values for the half-life in series [3] (setting [5]) and in series [3] (setting [6]) were 34.1 min and 138 min, respectively.

Regarding `O=C(NC1CCC1)c1ccc2nc(-c3cccc(NS(=O)(=O)NCCN4CCCCC4=O)c3)cn2c1` [Compound 95], the IC50 in series [1] (Table 1) worked out at 0.21 µM; in series [1] (Table 2) it was 0.21 µM; on ENL(YEATS)-HiBiT, 1050 nM. Besides, the figures for the half-life in series [3] (setting [5]) and in series [3] (setting [6]) were 6.07 min and 504 min, respectively.

In the case of `O=C(NCCN1CCCCC1)Nc1cccc(-c2cn3cc(C(=O)NC4CCC4)ccc3n2)c1` [Compound 113], the IC50 in series [1] (Table 1) came to 0.153 µM; in series [1] (Table 2), 0.153 µM; on ENL(YEATS)-HiBiT it was 2630 nM. In addition, the half-life in series [2] (setting [4]) was determined as 104 min; in series [3] (setting [5]), 85.9 min.

The IC50 is the concentration at which inhibition is half-maximal. High values mean lower potency, low ones higher potency.

The values are drawn from patent US20220274980A1, “PHARMACOLOGICAL INHIBITORS OF THE ENL YEATS DOMAIN” (priority 2019, published 2022).
